Tests used:
CYP2B1 = molecular target: T1, CYP2B1 (Rattus norvegicus, UniProt P00176); assay type: in vitro ADME
T1 construct: consisting of pooled HLMs (0.5 mg/ml) or RLMs (1 mg/ml) and an NADPH-regenerating system; from tissue; host or cells: rat liver microsomes prepared in house
T1 sequence (P00176 1-491): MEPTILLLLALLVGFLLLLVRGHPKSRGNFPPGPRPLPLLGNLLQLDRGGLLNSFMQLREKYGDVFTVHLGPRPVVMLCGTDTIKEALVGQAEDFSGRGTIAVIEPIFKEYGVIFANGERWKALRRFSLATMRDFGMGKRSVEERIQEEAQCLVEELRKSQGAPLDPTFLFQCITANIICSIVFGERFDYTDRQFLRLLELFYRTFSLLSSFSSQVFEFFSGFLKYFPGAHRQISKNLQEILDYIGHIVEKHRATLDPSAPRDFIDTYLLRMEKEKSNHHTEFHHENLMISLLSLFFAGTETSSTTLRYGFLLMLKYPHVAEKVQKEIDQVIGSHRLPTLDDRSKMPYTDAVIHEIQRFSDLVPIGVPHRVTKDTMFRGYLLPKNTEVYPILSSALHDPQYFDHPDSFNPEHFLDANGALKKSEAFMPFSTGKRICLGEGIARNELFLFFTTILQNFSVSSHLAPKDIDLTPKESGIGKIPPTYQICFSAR
Description: (§1) In this study, the rats were fasted overnight and killed by cervical dislocation before removal of the liver. The liver was excised, rinsed with ice-cold saline (0.9% NaCl w/v), weighed and homogenized in a […] Tris/KCl buffer (pH 7.4). Subsequently, the homogenate was centrifuged at 10,000 × g at 4 °C for 30 min. The supernatant was then centrifuged at 105,000 × g at 4 °C for 60 min. The pellet was reconstituted with […] Tris/KCl buffer (pH 7.4) and stored at −150 °C until use. The protein concentration of the liver microsomes was determined by a protein quantitative assay using bicinchoninic acid[22].
(§2) Microsomal incubation was carried out at 37 °C in a mixture of 200 μl in 0.05 M Tris/HCl buffer (pH 7.4) consisting of pooled HLMs (0.5 mg/ml) or RLMs (1 mg/ml) and an NADPH-regenerating system including MgCl2 (5 mM), G6P (10 mM), G6PDH (0.4 U/ml) and NADP (1 mM). Substrates were added into the incubation mixture and obtained the final concentrations (10 μM phenacetin for CYP1A2, 20 μM bupropion for CYP2B1/6, 20 μM tolbutamide for CYP2C9/11, 5 μM dextromethorphan for CYP2D1/6, 20 μM chlorzoxazone for CYP2E1 and 10 μM midazolam for CYP3A2/4), which were close to Km respectively. The proportion of organic solvent was not higher than 1% (v/v) in the incubation mixture. After pre-incubation for 5 min, the reaction was initiated by addition of NADP. Incubations were performed for 20 min, stopped by adding 200 μl ice-cold acetonitrile. And then 20 μl internal standard solution was added (3-acetamidophenol 2 μg/ml, chlorpropamide 2 μg/ml and mebendazole 2 μg/ml). The solution was mixed thoroughly for 3 min and centrifuged for 10 min at 16,000 × g at 4 °C. The supernatant (60 μl) was transferred to autosampler vials, and 2 μl was injected into LC-MS/MS system.
(§3) The IC50 (concentration of inhibitor to cause 50% inhibition of original enzyme activity) values were determined with the same incubation condition above. The specific concentrations of plumbagin were ranged from 0.1 μM to 50 μM. The IC50 values were calculated by plotting relative activities over the logarithm of plumbagin concentrations using GraphPad Prism 5.0 (GraphPad software Inc., CA, USA).
(§4) Cocktail probe substrates were then added and incubated for 20 min. Reactions were stopped with 200 μl ice-cold acetonitrile. The samples were treated according to the microsomal incubation method and then injected into LC-MS/MS for analysis.
(§5) Kinetic studies were performed for determining the types of inhibition on CYP by plumbagin. Pooled HLMs (0.5 mg/ml) or RLMs (1 mg/ml) with plumbagin (1 μM, 2 μM, 5 μM and 10 μM) were incubated in 0.05 M Tris/HCl buffer (pH 7.4) for 20 min at 37 °C. A series of concentrations for cocktail probe substrates were used: 2.5–20 μM phenacetin for CYP1A2; 5–40 μM bupropion for CYP2B1/6; 5–40 μM tolbutamide for CYP2C9/11; 1.25–10 μM dextromethorphan for CYP2D1/6; 5–40 μM chlorzoxazone for CYP2E1; 2.5–80 μM midazolam for CYP3A2; and 0.625–5 μM midazolam for CYP3A4. Enzyme kinetics as well as statistical analysis were performed using GraphPad Prism 5.0.
(§6) All data were presented as mean ± SD. The IC50 values were fitted by non-linear regression analysis using GraphPad Prism 5.0. The kinetic parameters were obtained by fitting velocity data to kinetic models (Michaelis-Menten) using GraphPad Prism 5.0. The Lineweaver-Burk Plot (the reciprocal of reaction velocities versus the reciprocal of substrates concentrations) was used to determine the quality of fit to a specific inhibition model. The inhibition constant (Ki) was obtained by a secondary plot using the slopes of the primary Lineweaver-Burk Plot (Km/Vmax versus inhibitor concentrations). αKi was obtained from a secondary plot using the y-intercepts of the Lineweaver-Burk plot (1/Vmax versus inhibitor concentrations). All results were analyzed in quadruplicate. One-way analysis of variance was used to estimate the significance of differences. […]

CYP2D1 = molecular target: T2, CYP2D1 (Rattus norvegicus, UniProt P10633); assay type: in vitro ADME
T2 construct: consisting of pooled HLMs (0.5 mg/ml) or RLMs (1 mg/ml) and an NADPH-regenerating system; from tissue; host or cells: rat liver microsomes prepared in house
T2 sequence (P10633 1-504): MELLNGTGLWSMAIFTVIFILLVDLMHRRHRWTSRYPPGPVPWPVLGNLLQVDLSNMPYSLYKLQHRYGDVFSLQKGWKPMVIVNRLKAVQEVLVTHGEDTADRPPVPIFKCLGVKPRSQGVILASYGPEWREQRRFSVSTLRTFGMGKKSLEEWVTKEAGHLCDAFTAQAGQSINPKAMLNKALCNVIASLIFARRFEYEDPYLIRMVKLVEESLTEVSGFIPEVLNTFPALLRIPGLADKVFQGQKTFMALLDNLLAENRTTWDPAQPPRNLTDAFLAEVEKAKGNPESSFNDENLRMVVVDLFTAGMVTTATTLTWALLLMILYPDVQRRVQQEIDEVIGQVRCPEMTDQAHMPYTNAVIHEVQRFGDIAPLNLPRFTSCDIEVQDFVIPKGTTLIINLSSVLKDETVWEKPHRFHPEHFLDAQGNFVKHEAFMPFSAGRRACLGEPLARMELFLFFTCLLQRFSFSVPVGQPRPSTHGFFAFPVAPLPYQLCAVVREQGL
Description: as §1, §2, §3, §4, §5, §6

## CC1=CC(=O)c2c(O)cccc2C1=O [plumbagin, 5-hydroxy-2-methyl-1,4-naphthoquinone]
CYP2B1
  IC50: 5.86 µM
  Ki: 9.93 µM
  Type of inhibition: competitive
CYP2D1
  IC50: 6.17 µM
  Ki: 9.49 µM
  Type of inhibition: mixed-type
  α: 0.69
  αKi: 13.79 µM

Reference: publication PMC4916434, “Evaluation of the inhibition potential of plumbagin against cytochrome P450 using LC-MS/MS and cocktail approach” (Scientific Reports, 2016)
